# Results as given in patent US12599588B2, “Inhibitor for V-ATPase activity, antibacterial agent, medicine, antibacterial method and screening method” (Japan Science and Technology Agency, priority 2019, dated 2026).
# Like-named read-outs stand apart in the source and are kept apart here.
# Tests used:
# [1] = target: T1, V-ATPase (purified from enterococci or recombinant E. coli) (Enterococcus hirae, UniProt P43439+P43457); experiment: ATPase activity measurement (molybdenum blue method, primary screening); assay type: biochemical
# T1 construct: made in house; host or cells: Enterococcus hirae (native) or recombinant E. coli
# Method: The ATPase activity can be measured by a molybdenum blue method for measuring absorbance of the inorganic phosphoric acid generated by hydrolysis of ATP. As the reaction conditions, conditions for measuring the ATPase activity can be adopted. As the buffer solution used in the reaction, Tris-HCl buffer can be used. The reaction time is usually 10 to 60 minutes, but can be appropriately adjusted depending on the air temperature or the like. The reaction of V-ATPase is terminated with the addition of a surfactant such as sodium dodecyl sulfate (SDS), and into which a color-developing liquid (such as ferrous sulfate) is added to give a color, and then the concentration of the inorganic phosphoric acid can be calculated by the measurement of the absorbance at a wavelength of 650 nm.
# From the concentration of inorganic phosphoric acid calculated above, the inhibition rate of the V-ATPase reaction can be calculated. That is, a graph is created in which the inhibition rate is plotted on the vertical axis and the concentration of compound is plotted on the horizontal axis, and the concentration (IC50) at which the inhibition rate becomes 50% is determined. As the concentration of compound at which IC50 is obtained becomes lower, a higher V-ATPase inhibitory effect is exerted with a small amount, and accordingly, the compound can be taken as a candidate compound for the inhibitor for V-ATPase activity.
# The V-ATPase was prepared by the method disclosed in the following papers. • Paper 1: Takeshi Murata, et. al, “Purification and Reconstitution of Na^+-translocating Vacuolar ATPase from Enterococcus hirae”, J. Biol. Chem. 272, 24885-24890 (1997) • Paper 2: Takeshi Murata, et. al, “Torque Generation of Enterococcus hirae V-ATPase”, J. Biol. Chem. 289, 31212-31223 (2014)
# ATPase activity measurement was conducted by a molybdenum blue method that quantifies the inorganic phosphoric acid generated by hydrolysis of ATP with the use of absorbance measurement. The measurement was conducted in a 96-well plate, and 0.05% DDM (n-dodecyl-β-D-maltoside), 10 μg/mL of V-ATPase (purified from enterococci or recombinant E. coli), and 20 μM of a compound were added into a buffer (100 mM Tris-HCl at pH 8.5, 100 mM NaCl, 5 mM MgSO4, 10% glycerol). Into the mixture obtained above, ATP was added so as to be 5 mM, the whole amount was set to 100 μL, the reaction was started while stirring the mixture with a stirrer, and the reaction time was set to 30 minutes. Since the ATPase activity changes largely depending on the reaction temperature, the reaction time was adjusted within the range of 10 to 60 minutes corresponding to the air temperature on the day of the experiment. With the addition of 50 μL of 20% SDS, the V-ATPase was denatured and the reaction was terminated, and into the resultant mixture, 75 μL of color-developing liquid (5% ferrous sulfate, 1.6% ammonium molybdate, and 1 M sulfuric acid) was added to give a color. Immediately, the absorbance at a wavelength of 650 nm was measured by using a plate reader. Four kinds of KH2PO4 aqueous solutions of 0.2 mM, 0.5 mM, 1.0 mM, and 1.5 mM were reacted with MQ (ultrapure water) in the same experiment system, and then the activity of V-ATPase was measured by determining the concentration of generated inorganic phosphoric acid with the use of a created calibration curve. In this regard, a compound that had inhibited 50% or more of the activity of V-ATPase was diluted stepwisely so as to have a concentration of 10 μM, 5 μM, 2 μM, 1 μM, 500 nM, 200 nM, 100 nM, and 50 nM, and the measurement similar to the above was conducted.
# From the results of the above measurement of ATPase activity, the inhibition rate was calculated comparing the decrease in the activity by assuming the activity under the condition of no compound addition as 100. A graph was created in which the inhibition rate was plotted on the vertical axis and the concentration of compound was plotted on the horizontal axis (FIG. 2). […]
# [2] = test system: enterococci (Enterococcus hirae); experiment: Growth experiment of enterococci (secondary screening), OD600 at pH 7.0 and pH 8.5; assay type: cell-based; design: Growth inhibition rate (%): concentration or dose not given beside the values; details: for Specificity: growth inhibition at pH 8.5 versus pH 7.0
# Method: In the culture of enterococci (Enterococcus hirae), a culture medium in which the Na^+ concentration had been adjusted by adding a buffer solution using 2% tryptone and 1% yeast extract as the base was used. In a case of adding glucose, glucose prepared in a 50% solution was added so as to be 1% into the culture medium when the culture medium was used. The whole amount 200 μL was cultured using a 96-well plate, and OD600 was measured every hour by using a plate reader. By using culture media at pH 7.0 and pH 8.5, the effect of pH on the growth was observed. In culture of bacteria, the pH often fluctuates largely due to the decomposition of the sugars required for the growth, and it is extremely important to maintain a constant pH in this experiment, and therefore, the pH was maintained constant with the addition of a buffer suitable for each pH. Since the V-ATPase is expressed only under an alkaline condition, the growth inhibition observed with the addition of an inhibitor is largely dependent on the pH.
# IC50 and the like of the above 24 kinds of compounds are described in the following table. […] Furthermore, with respect to the symbol “n.a.”, a compound having a growth inhibition rate of 60% or more at pH 7.0 is determined that there was the growth inhibition. In addition, the growth inhibition rate of a compound having no clear inhibition is also recorded for reference.
# [3] = IC50 (nM), Table 2, inhibition of V-ATPase ATPase activity, pH 8.5 buffer
# [4] = Table 2, E. hirae growth, pH not stated (media pH 7.0 and pH 8.5)
# [5] = Table 3, 2-phenyl benzimidazole derivatives, read-out: IC50
# [6] = Table 3, 2-phenyl benzimidazole derivatives
# [7] = Table 2, inhibition of V-ATPase ATPase activity, pH 8.5 buffer, read-out: IC50
"IC50 [1, 7]",Structure (SMILES),"Growth inhibition rate (%) [2, 4]",Specificity ([2]; Table 2),further results
1000 nM,COc1ccc(C(=O)N/N=C/C(C)=C/c2ccc(C(C)C)cc2)cc1 [Compound V-153],13.3%,− (there was no growth inhibition in any case),
4500 nM,CCCOc1ccc(/C=N/NC(=N)N)c(OCCC)c1 [Compound V-189],91.2%,+ (there was no growth inhibition at pH 7.0 but was the growth inhibition at pH 8.5),
4500 nM,CCCCC1CCC(C(=O)Oc2ccc(C=O)c(O)c2)CC1 (stereo not shown) [Compound V-149],90.5%,n.a. (there was the growth inhibition in any case),
500 nM,CN(C)C(=S)N/N=C1\C(=O)C(c2ccccc2)(c2ccccc2)c2ccccc21 [Compound V-150],70.4%,n.a. (there was the growth inhibition in any case),

# Continued, compound first:
Structure (SMILES),"IC50 [1, 7]","Growth inhibition rate (%) [2, 4]",Specificity ([2]; Table 2),further results
"CC1=C(/C=C/C(C)=C/C=C/C(C)=C/C(=O)Nc2ccc(O)cc2)C(C)(C)CCC1 [Compound V-84, (2E,4E,6E,8E)-N-(4-hydroxyphenyl)-3,7-dimethyl-9-(2,6,6-trimethylcyclohexyl-1-en-1-yl)nona-2,4,6,8-tetraeneamide]",,90.6%,− (there was no growth inhibition in any case),"IC50 [1, 3]: 80 nM; IC50 ([1]; high affinity for V-ATPase (IC50), unit inferred): ≤ 400 nM; non-specific inhibition / non-specific bond [2]: non-specific inhibition"
COc1ccc(-c2nc3cc(C)ccc3[nH]2)cc1 [Compound V-161-10],,,,"IC50 [1, 5]: 120 nM; Growth inhibition rate (%) [2, 6]: 86.8%; Specificity ([2]; Table 3): + (there was no growth inhibition at pH 7.0 but was the growth inhibition at pH 8.5)"
CCc1ccc(-c2nc3cc(C)ccc3[nH]2)cc1 [Compound V-161-02],,,,"IC50 [1, 5]: 120 nM; Growth inhibition rate (%) [2, 6]: 88.5%; Specificity ([2]; Table 3): + (there was no growth inhibition at pH 7.0 but was the growth inhibition at pH 8.5)"
CCCc1ccc(OCc2nc(-c3ccc(NC(=O)c4cccs4)cc3)no2)cc1 [Compound V-234-01],,,,"IC50 ([1]; IC50 (nM), Table 4, (1,2,4-oxadiazol-3-yl)phenyl derivatives): 50 nM; Growth inhibition rate (%) ([2]; Table 4, (1,2,4-oxadiazol-3-yl)phenyl derivatives): 76.9%"
CN(C)c1ccc2nc3ccc(N(C)C)cc3[s+]c2c1 [Compound V-27],,64.0%,+ (there was no growth inhibition at pH 7.0 but was the growth inhibition at pH 8.5),"IC50 [1, 3]: 3000 nM"
